Here are results for 31 compounds from US11318157B2, “6-6 bicyclic aromatic ring substituted nucleoside analogues for use as PRMT5 inhibitors” (Janssen Pharmaceutica NV, priority 2015, dated 2022).

Each structure is given as a SMILES string.

In experiment [1] the target is T1, PRMT5-MEP50 enzyme (Homo sapiens, UniProt O14744).
T1 construct: One virus expresses full length human PRMT5 with Flag-tag at N-terminus; Flag (N); purchased Charles River (Argenta); host or cells: insect cells (Sf9), baculovirus co-infection
The experiment is described as follows: In vitro assay 1b: high throughput mass spectrometer assay of SAH formation, 1.25 nM enzyme, 120 min. It counts as biochemical. In a few lines:
(§1)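 Flag-PRMT5/His-MEP50 complex from Sf9 cells, with 1 μM SAM and 0.3 μM full-length histone H2A in pH 8.5 Tris buffer, at 30 °C; 10 nM enzyme for 60 min (1a) or 1.25 nM for 120 min (1b). Formic acid-quenched SAH read by RapidFire MS/MS; 11-point IC50 with Hill fit.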

For experiment [2], the system named is nuclear symmetric Arginine dimethylation in A549 cells. Put plainly: PD assay (assay 2): inhibition of nuclear symmetric Arginine dimethylation (SYM10 immunohistochemistry), 48 h. It is filed as cell-based. Particulars: PD assay, A549 cells, symmetric Arginine dimethylation; for IC50: Homo sapiens, A549, averaged values, read-out: pIC50 Assay 2 (converted). In a few lines:
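Cells seeded at 400/well overnight, then treated 48 h at 37 °C, final DMSO 0.2%. Fixed and stained with SYM10 antibody plus Alexa 488 secondary, Hoechst and CellMask, then imaged on Opera. Normalized to DMSO (high) and 10 μM reference compound (low); averaged pIC50 reported.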

Experiment [3] addresses T1, PRMT5-MEP50 enzyme. Put plainly: In vitro assay 1a: high throughput mass spectrometer assay of SAH formation, 10 nM enzyme, 60 min. Particulars: averaged values, PRMT5-MEP50, 10 nM enzyme. It counts as biochemical. In a few lines:
as §1

In the next experiment the target is PRMT5 (Homo sapiens, UniProt O14744). To be noted: literature statement; cited from earlier work.
The test system of another experiment is MCL xenograft models. To be noted: multiple MCL xenograft models; cited from earlier work.
[4] abbreviates: averaged values, PRMT5-MEP50, 1.25 nM enzyme, 120 min, read-out: pIC50 Assay 1b (converted).
The mark [5] stands for this setting: read-out: pIC50 Assay 1a (converted).

T1 sequence (O14744 whole entry): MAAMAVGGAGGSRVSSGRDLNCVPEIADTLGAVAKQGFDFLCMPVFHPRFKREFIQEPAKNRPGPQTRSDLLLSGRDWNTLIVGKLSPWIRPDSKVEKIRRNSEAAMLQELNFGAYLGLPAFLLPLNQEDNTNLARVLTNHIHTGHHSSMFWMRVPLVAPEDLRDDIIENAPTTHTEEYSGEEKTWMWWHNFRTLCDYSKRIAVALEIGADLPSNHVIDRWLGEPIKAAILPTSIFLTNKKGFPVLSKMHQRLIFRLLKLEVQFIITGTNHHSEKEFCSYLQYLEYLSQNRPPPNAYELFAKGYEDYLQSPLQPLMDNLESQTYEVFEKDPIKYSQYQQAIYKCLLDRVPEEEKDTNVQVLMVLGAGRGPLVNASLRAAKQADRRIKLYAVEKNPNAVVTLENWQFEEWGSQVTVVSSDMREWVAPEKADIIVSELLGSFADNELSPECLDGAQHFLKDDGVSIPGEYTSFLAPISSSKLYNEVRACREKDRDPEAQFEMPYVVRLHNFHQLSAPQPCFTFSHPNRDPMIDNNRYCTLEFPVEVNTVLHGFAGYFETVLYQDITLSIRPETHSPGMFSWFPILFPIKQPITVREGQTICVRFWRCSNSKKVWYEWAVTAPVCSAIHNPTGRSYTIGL
T1 sequence (Q9BQA1 whole entry partner): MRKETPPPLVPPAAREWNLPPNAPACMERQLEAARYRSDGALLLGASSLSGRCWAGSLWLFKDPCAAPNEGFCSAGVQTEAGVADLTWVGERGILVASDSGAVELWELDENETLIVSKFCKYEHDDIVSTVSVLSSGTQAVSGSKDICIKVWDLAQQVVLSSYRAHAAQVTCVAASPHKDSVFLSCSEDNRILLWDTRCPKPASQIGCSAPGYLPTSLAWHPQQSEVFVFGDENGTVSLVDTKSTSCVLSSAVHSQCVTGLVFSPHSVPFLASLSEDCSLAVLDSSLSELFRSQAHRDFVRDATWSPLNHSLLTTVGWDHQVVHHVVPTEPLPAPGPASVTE
Sequence of PRMT5 (O14744 whole entry, species assumed): as the sequence (O14744 whole entry) above
Sequence of PRMT5 (Q9BQA1 whole entry partner, species assumed): as the sequence (Q9BQA1 whole entry partner) above

Take `CNc1ccc2ccc(OC[C@H]3O[C@@H](n4ccc5c(Cl)ncnc54)[C@H](O)[C@@H]3O)cc2n1` [Compound 136]: the IC50 was 50.1 nM on PRMT5-MEP50 enzyme [1] (setting [4]), 501 nM in experiment [2] and 7.94 nM on PRMT5-MEP50 enzyme [3] (setting [5]).

On to `COc1cc2c(Cl)c(C#N)cnc2cc1OC[C@H]1O[C@@H](n2ccc3c(N)ncnc32)[C@H](O)[C@@H]1O` [Compound 30], for which the IC50 at PRMT5-MEP50 enzyme [1] (setting [4]) was 39800 nM; in experiment [2], greater than 10000 nM; on PRMT5-MEP50 enzyme [3] (setting [5]), greater than 10000 nM.

Turning to `N#Cc1cnc2cc(OC[C@H]3O[C@@H](n4ccc5c(N)ncnc54)[C@H](O)[C@@H]3O)ccc2c1N` [Compound 29], the IC50 was 1260 nM on PRMT5-MEP50 enzyme [1] (setting [4]), 15800 nM in experiment [2] and 501 nM at PRMT5-MEP50 enzyme [3] (setting [5]).

Consider `N#Cc1ccc2ccc(OC[C@H]3O[C@@H](n4ccc5c(N)ncnc54)[C@H](O)[C@@H]3O)cc2n1` [Compound 70], for which the IC50 at PRMT5-MEP50 enzyme [1] (setting [4]) is 1580 nM; in experiment [2], 6310 nM; at PRMT5-MEP50 enzyme [3] (setting [5]), 631 nM.

For the compound `Nc1ccc2ccc(OC[C@H]3O[C@@H](n4ccc5c(Cl)ncnc54)[C@H](O)[C@@H]3O)cc2n1` [Compound 130], the figures for the IC50 (on PRMT5-MEP50 enzyme [1] (setting [4]); in experiment [2]; at PRMT5-MEP50 enzyme [3] (setting [5])) were 7.94 nM, 12.6 nM and 0.631 nM, respectively.

For the compound `CN(C)Cc1ccc2ccc(OC[C@H]3O[C@@H](n4ccc5c(N)ncnc54)[C@H](O)[C@@H]3O)cc2n1` [Compound 97], the values for the IC50 (at PRMT5-MEP50 enzyme [1] (setting [4]); in experiment [2]; on PRMT5-MEP50 enzyme [3] (setting [5])) were 15800 nM, greater than 10000 nM and greater than 10000 nM, respectively.

Turning to `CC(C)Cc1cnc2cc(OC[C@H]3O[C@@H](n4ccc5c(N)ncnc54)[C@H](O)[C@@H]3O)ccc2c1` [Compound 112], the IC50 at PRMT5-MEP50 enzyme [1] (setting [4]) was 200 nM; in experiment [2], 398 nM; on PRMT5-MEP50 enzyme [3] (setting [5]), 50.1 nM.

`Nc1ncnc2c1ccn2[C@@H]1O[C@H](COc2ccc3c(Cl)c(Cl)cnc3c2)[C@@H](O)[C@H]1O` [Compound 35]: the IC50 at PRMT5-MEP50 enzyme [1] (setting [4]) was 794 nM; in experiment [2], 398 nM; on PRMT5-MEP50 enzyme [3] (setting [5]), 398 nM.

With `Nc1ncnc2c1ccn2[C@@H]1C[C@H](OCc2ccc3cnccc3c2)[C@@H](O)[C@H]1O` [Compound 85], the values for the IC50 (on PRMT5-MEP50 enzyme [1] (setting [4]); in experiment [2]; on PRMT5-MEP50 enzyme [3] (setting [5])) were 7940 nM, 12600 nM and greater than 10000 nM, respectively.

Consider `O=C(NC[C@H](O)CN1CCc2ccccc2C1)c1cc(NC2COC2)ncn1` [EPZ015666], for which, at PRMT5, the “potency as PRMT5 inhibitor” value is reported as “sub-nanomolar”. The anti-tumour activity result in the experiment on MCL xenograft models is “anti-tumour activity”.

Regarding `COCc1cnc2cc(OC[C@H]3O[C@@H](n4ccc5c(N)ncnc54)[C@H](O)[C@@H]3O)ccc2c1` [Compound 120], the IC50 was 316 nM at PRMT5-MEP50 enzyme [1] (setting [4]), 316 nM in experiment [2] and 79.4 nM on PRMT5-MEP50 enzyme [3] (setting [5]).

As to `Nc1ncnc2c1ccn2[C@@H]1O[C@H](CCc2ccc3cc(Br)cnc3c2)[C@@H](O)[C@H]1O` [Compound 111], the IC50 was 39.8 nM on PRMT5-MEP50 enzyme [1] (setting [4]), 63.1 nM in experiment [2] and 12.6 nM on PRMT5-MEP50 enzyme [3] (setting [5]).

On to `Nc1ncnc2c1ccn2[C@@H]1C[C@H](COc2ccc3cc(Br)cnc3c2)[C@@H](O)[C@H]1O` [Compound 47], for which the figures for the IC50 (on PRMT5-MEP50 enzyme [1] (setting [4]); in experiment [2]; on PRMT5-MEP50 enzyme [3] (setting [5])) were 63.1 nM, 50.1 nM and 25.1 nM, respectively.

Take `Nc1ncnc2c1ccn2[C@@H]1C[C@H](OCc2ccc3ncccc3c2)[C@@H](O)[C@H]1O` [Compound 65]: the IC50 at PRMT5-MEP50 enzyme [1] (setting [4]) was 1000 nM; in experiment [2], 15800 nM; on PRMT5-MEP50 enzyme [3] (setting [5]), 3160 nM.

Take `Nc1ncnc2c1ccn2[C@@H]1C[C@H](CCc2ccc3cnc(NCC4CC4)nc3c2)[C@@H](O)[C@H]1O` [Compound 141]: the IC50 is 50.1 nM on PRMT5-MEP50 enzyme [1] (setting [4]), 63.1 nM in experiment [2] and 7.94 nM at PRMT5-MEP50 enzyme [3] (setting [5]).

As to `O[C@@H]1[C@@H](CCc2ccc3ccc(NCC4CC4)nc3c2)C[C@@H](n2ccc3c(Cl)ncnc32)[C@@H]1O` [Compound 115], the results for the IC50 (at PRMT5-MEP50 enzyme [1] (setting [4]); in experiment [2]; at PRMT5-MEP50 enzyme [3] (setting [5])) were 5.01 nM, roughly 5.5 nM and 10 nM, respectively.

With `Nc1ncnc2c1ncn2[C@@H]1O[C@H](COc2ccc3cc(Br)cnc3c2)[C@@H](O)[C@H]1O` [Compound 220], the results for the IC50 (at PRMT5-MEP50 enzyme [1] (setting [4]); in experiment [2]; on PRMT5-MEP50 enzyme [3] (setting [5])) were 501 nM, 2510 nM and 316 nM, respectively.

As for `Nc1ncnc2c1ccn2[C@@H]1C[C@H](OCc2ccc3cccnc3c2)[C@@H](O)[C@H]1O` [Compound 64], the figures for the IC50 (on PRMT5-MEP50 enzyme [1]; in experiment [2]; against PRMT5-MEP50 enzyme [3] (pIC50 Assay 1a)) were 794 nM, roughly 1070 nM and 126 nM, respectively.

For `CNc1ncnc2c1ccn2[C@@H]1O[C@H](COc2ccc3ccc(N)nc3c2)[C@@H](O)[C@H]1O` [Compound 186], the IC50 on PRMT5-MEP50 enzyme [1] (setting [4]) is 15.8 nM; in experiment [2], 79.4 nM; at PRMT5-MEP50 enzyme [3] (setting [5]), 2 nM.

In the case of `Nc1cnc2ccc(CC[C@H]3C[C@@H](n4ccc5c(Cl)ncnc54)[C@H](O)[C@@H]3O)cc2n1` [Compound 143], the values for the IC50 (at PRMT5-MEP50 enzyme [1] (setting [4]); in experiment [2]; at PRMT5-MEP50 enzyme [3] (setting [5])) were 50.1 nM, 2510 nM and 10 nM, respectively.

Consider `CC(Oc1ccc2cccnc2c1)[C@H]1O[C@@H](n2ccc3c(N)ncnc32)[C@H](O)[C@@H]1O` (single isomer, unassigned) [Compound 68], for which the IC50 on PRMT5-MEP50 enzyme [1] (setting [4]) was greater than 100000 nM; at PRMT5-MEP50 enzyme [3] (setting [5]), 2510 nM. Further, in experiment [2] (averaged values), the “pIC50 Assay 2” value was roughly 5.14.

On to `Nc1nc(Cl)nc2c1ccn2[C@@H]1O[C@H](COc2ccc3cc(Br)cnc3c2)[C@@H](O)[C@H]1O` [Compound 42], for which the figures for the IC50 (on PRMT5-MEP50 enzyme [1] (setting [4]); in experiment [2]; on PRMT5-MEP50 enzyme [3] (setting [5])) were 126 nM, 316 nM and 50.1 nM, respectively.

With `Nc1ncnc2c1ccn2[C@@H]1O[C@H](COc2cc3ncc(Cl)cc3cc2Cl)[C@@H](O)[C@H]1O` [Compound 100], the IC50 at PRMT5-MEP50 enzyme [1] (setting [4]) was 200 nM; in experiment [2] it was 794 nM; at PRMT5-MEP50 enzyme [3] (setting [5]), 126 nM.

As to `Nc1ncnc2c1ccn2[C@@H]1O[C@H](COc2ccc3cc(C4CCCC4)cnc3c2)[C@@H](O)[C@H]1O` [Compound 109], the figures for the IC50 (on PRMT5-MEP50 enzyme [1] (setting [4]); in experiment [2]; at PRMT5-MEP50 enzyme [3] (setting [5])) were 200 nM, 1000 nM and 126 nM, respectively.

For the compound `Cc1ncnc2c1ccn2[C@@H]1O[C@H](CCc2ccc3ccc(N)nc3c2)[C@@H](O)[C@H]1O` [Compound 192], the IC50 on PRMT5-MEP50 enzyme [1] (setting [4]) was 10 nM; in experiment [2], 3.16 nM; on PRMT5-MEP50 enzyme [3] (setting [5]) it was 0.631 nM.

Take `Nc1ncnc2c1ccn2[C@@H]1O[C@H](COc2cc(C(F)(F)F)c3cccnc3c2)[C@@H](O)[C@H]1O` [Compound 37]: the IC50 at PRMT5-MEP50 enzyme [1] (setting [4]) was 631 nM; in experiment [2], 5010 nM; at PRMT5-MEP50 enzyme [3] (setting [5]) it was 1000 nM.

For the compound `Nc1ncnc2c1ccn2[C@@H]1O[C@H](CNc2ccc3cccnc3c2)[C@@H](O)[C@H]1O` [Compound 49], the IC50 at PRMT5-MEP50 enzyme [1] (setting [4]) is 10 nM; in experiment [2], 10 nM; on PRMT5-MEP50 enzyme [3] (setting [5]), 3.98 nM.

For `NC(=O)c1ccc2ccc(OC[C@H]3O[C@@H](n4ccc5c(N)ncnc54)[C@H](O)[C@@H]3O)cc2n1` [Compound 245], the IC50 at PRMT5-MEP50 enzyme [1] (setting [4]) is 3160 nM; in experiment [2] it was greater than 20000 nM; at PRMT5-MEP50 enzyme [3] (setting [5]) it was 2000 nM.

Regarding `Nc1ncnc2c1ccn2[C@@H]1O[C@H](COc2cccc3cccnc23)[C@@H](O)[C@H]1O` [Compound 8], the IC50 was 12600 nM on PRMT5-MEP50 enzyme [1] (setting [4]), greater than 10000 nM in experiment [2] and 6310 nM on PRMT5-MEP50 enzyme [3] (setting [5]).

For `Nc1ncnc2c1ccn2[C@@H]1O[C@H](COc2ccc3ccc(NCc4ccc(Cl)cc4)nc3c2)[C@@H](O)[C@H]1O` [Compound 132], the IC50 at PRMT5-MEP50 enzyme [1] (setting [4]) is 2.51 nM; in experiment [2], 2.51 nM; at PRMT5-MEP50 enzyme [3] (setting [5]) it was 0.794 nM.

`CNc1ccc2ccc(OC[C@H]3O[C@@H](n4ccc5cncnc54)[C@H](O)[C@@H]3O)cc2n1` [Compound 174]: the values for the IC50 (at PRMT5-MEP50 enzyme [1] (setting [4]); in experiment [2]; on PRMT5-MEP50 enzyme [3] (setting [5])) were 50.1 nM, 126 nM and 10 nM, respectively.
